Measured values: the NIST ThermoML archive (doi:10.1021/acs.jced.5b00813)

What was measured:
[1] = xn = mol fraction of the nth substance listed; conditions: 298.15 K, 100 kPa, Liquid, Vibrating tube method
[2] = excess molar enthalpy (molar enthalpy of mixing); xn = mol fraction of the nth substance listed; conditions: 298.15 K, 100 kPa, Liquid, Calvet calorimetry
[3] = 298.15 K; 100 kPa; Liquid; Vibrating tube method
[4] = refractive index (Na D-line) (dimensionless); conditions: 298.15 K; 101.33 kPa; Liquid; Standard Abbe refractometry

COC(C)=O [methyl ethanoate] + CCCC(=O)OC
Conditions | mass density [kg/m3]
[1], x2 = 0 | 927.16

COC(C)=O [methyl ethanoate] + CCCCC(=O)OC
Conditions | mass density [kg/m3]
[1], x2 = 0 | 927.16

COC(C)=O [methyl ethanoate] + CCCCCCCC
Conditions | excess molar enthalpy [kcal/mol] | mass density [kg/m3]
[1], x2 = 0 | – | 927.16
[1], x2 = 0.0493 | – | 901.46
[1], x2 = 0.1011 | – | 878.04
[1], x2 = 0.1517 | – | 857.91
[1], x2 = 0.2033 | – | 839.55
[1], x2 = 0.253 | – | 823.66
[1], x2 = 0.3008 | – | 809.86
[1], x2 = 0.3471 | – | 797.79
[1], x2 = 0.3946 | – | 786.15
[1], x2 = 0.4523 | – | 773.45
[1], x2 = 0.4951 | – | 764.76
[1], x2 = 0.5307 | – | 758.11
[1], x2 = 0.5777 | – | 749.93
[1], x2 = 0.5898 | – | 747.92
[1], x2 = 0.6146 | – | 743.98
[1], x2 = 0.6388 | – | 740.27
[1], x2 = 0.6699 | – | 735.52
[1], x2 = 0.7238 | – | 728.1
[1], x2 = 0.7841 | – | 720.49
[1], x2 = 0.8333 | – | 714.64
[1], x2 = 0.8887 | – | 708.75
[1], x2 = 0.9311 | – | 704.69
[1], x2 = 0.9585 | – | 702.21
[2], x2 = 0.0466 | 0.0992 | –
[2], x2 = 0.1009 | 0.194 | –
[2], x2 = 0.1504 | 0.271 | –
[2], x2 = 0.2057 | 0.338 | –
[2], x2 = 0.258 | 0.391 | –
[2], x2 = 0.3043 | 0.427 | –
[2], x2 = 0.3516 | 0.455 | –
[2], x2 = 0.3642 | 0.464 | –
[2], x2 = 0.3999 | 0.479 | –
[2], x2 = 0.446 | 0.487 | –
[2], x2 = 0.5006 | 0.487 | –
[2], x2 = 0.5742 | 0.467 | –
[2], x2 = 0.6631 | 0.417 | –
[2], x2 = 0.7615 | 0.331 | –
[2], x2 = 0.8485 | 0.226 | –
[2], x2 = 0.9324 | 0.107 | –

CCCCC(=O)OC [methyl pentanoate]
Conditions | mass density [kg/m3] | refractive index
[3] | 884.84 | –
[4] | – | 1.3968

CCCCC(=O)OC [methyl pentanoate] + CC(C)CC(C)(C)C
Conditions | excess molar enthalpy [kcal/mol] | mass density [kg/m3]
[1], x2 = 0 | – | 884.84
[1], x2 = 0.0537 | – | 871.44
[1], x2 = 0.1588 | – | 846.38
[1], x2 = 0.2505 | – | 825.53
[1], x2 = 0.3544 | – | 803.1
[1], x2 = 0.4518 | – | 783.06
[1], x2 = 0.4984 | – | 773.84
[1], x2 = 0.5417 | – | 765.44
[1], x2 = 0.642 | – | 746.75
[1], x2 = 0.6854 | – | 738.97
[1], x2 = 0.7425 | – | 728.98
[1], x2 = 0.7967 | – | 719.79
[1], x2 = 0.8148 | – | 716.75
[1], x2 = 0.8415 | – | 712.32
[1], x2 = 0.8779 | – | 706.53
[1], x2 = 0.8999 | – | 702.99
[1], x2 = 0.9409 | – | 696.52
[2], x2 = 0.0438 | 0.0344 | –
[2], x2 = 0.0963 | 0.0672 | –
[2], x2 = 0.1589 | 0.105 | –
[2], x2 = 0.2206 | 0.137 | –
[2], x2 = 0.2692 | 0.159 | –
[2], x2 = 0.3311 | 0.177 | –
[2], x2 = 0.3825 | 0.191 | –
[2], x2 = 0.436 | 0.201 | –
[2], x2 = 0.4818 | 0.207 | –
[2], x2 = 0.5239 | 0.211 | –
[2], x2 = 0.5638 | 0.212 | –
[2], x2 = 0.5679 | 0.211 | –
[2], x2 = 0.6024 | 0.208 | –
[2], x2 = 0.6258 | 0.205 | –
[2], x2 = 0.7031 | 0.189 | –
[2], x2 = 0.7813 | 0.157 | –
[2], x2 = 0.8452 | 0.121 | –
[2], x2 = 0.9243 | 0.071 | –
